Reference: patent EP0074307A1, “Mixed bromo-iodo benzene compounds and contrast products containing them” (Société dite: GUERBET S.A., priority 1981, dated 1983)

Assays:
complément = experiment: Complement activation (hemolytic concentration 50, CH 50); assay type: biochemical; set-up: unit not given here; conditions: higher CH 50 = less complement activation, better tolerance
Text: Les travaux d'Elliott C. Lasser (Investig. Radiol., 1974, 9, 4 6A) ont montré que les produits de contraste activent le complément, qui est un ensemble de protéines sériques dont l'activation peut conduire à des réactions anaphylactiques graves.
La mesure de cette activation est effectuée par la détermination de la concentration hémolytique 50 désignée CH 50. On estime que les produits moins activateurs du complément, c'est-à-dire ayant une CH 50 plus élevée , provoquent moins d'effets secondaires de type anaphylactiques et présentent donc une meilleure tolérance.

[1] = X-ray opacity measured via film densitometry, relative to Hexabrix; assay type: physicochemical; conditions: aqueous solutions of methylglucamine salts, same number of moles as Hexabrix (32 % iodine), X-ray source 70 kV
Text: L'opacité a été mesurée indirectement à l'aide de l'impression produite sur un film photographique par un faisceau de rayons X traversant une cuve contenant une solution aqueuse des composés. La transparence du film après développement a été mesurée à l'aide d'un densi- tomètre optique. Dans chaque cas, la mesure a été effectuée sur le même film et avec la même source de rayons X (70 kV) par comparaison avec un produit opacifiant servant de référence.
Comme produit de référence, on a utilisé l'Hexa- brix qui est une solution de sels de sodium et de méthyl- glucamine de l'acide ioxaglique à 32 % en iode.
Les composés selon l'invention ont été testés sous forme de solutions aqueuses de leurs sels de méthyl- glucamine contenant le même nombre de moles de composés que l'Hexabrix.

Row | SMILES | CH 50 (complément) | Opacité relative/Hexabrix [1]
1 | CNC(=O)c1c(Br)c(C(=O)NCC(=O)Nc2c(I)cc(I)c(C(=O)O)c2I)c(Br)c(N(C)C(C)=O)c1Br [compound 8] | 11,5 | 
2 | CNC(=O)c1c(I)c(NC(=O)CNC(=O)c2c(Br)cc(Br)c(N(C)C(C)=O)c2Br)c(I)c(C(=O)O)c1I [compound 5] | 7,4 | 0,92
3 | CNC(=O)c1c(I)c(C(=O)NCC(=O)Nc2c(Br)c(C(=O)O)c(Br)c(C(=O)NCCO)c2Br)c(I)c(N(C)C(C)=O)c1I [compound 1, acide tribromo-2,4,6 N-hydroxyéthylcarbamoyl-3 (triiodo-2,4,6 N-méthylcarbamoyl-3 N-méthyl N-acétylamino-5 benzoyl) glycylamino-5 benzoique] | 20,2 | 0,91
4 | CNC(=O)c1c(I)c(NC(=O)CNC(=O)c2c(I)cc(I)c(N(C)C(C)=O)c2I)c(I)c(C(=O)O)c1I [Analogue complètement iodé du composé 5, reference compound] | 3,8 | 
5 | CNC(=O)c1c(Br)c(C(=O)NCC(=O)Nc2c(I)c(C(=O)O)c(I)c(C(=O)NCCO)c2I)c(Br)c(N(C)C(C)=O)c1Br [Composé 2, acide triiodo-2,4,6 N-hydroxyéthylcarbamoyl-3 (tribromo-2,4,6 N-méthylcarbamoyl-3 N-méthyl N-acétylamino-5 benzoyl) glycylamino-5 benzoïque] | 20,8 | 0,92
6 | CNC(=O)c1c(I)c(C(=O)NCC(=O)Nc2c(Br)cc(Br)c(C(=O)O)c2Br)c(I)c(N(C)C(C)=O)c1I [compound 7] | 10,0 | 
7 | CNC(=O)c1c(Br)c(C(=O)NCCCC(=O)Nc2c(I)c(C(=O)O)c(I)c(C(=O)NCCO)c2I)c(Br)c(N(C)C(C)=O)c1Br [compound 13] | 15,3 | 
8 | CNC(=O)c1c(Br)c(C(=O)NCCC(=O)Nc2c(I)cc(I)c(C(=O)O)c2I)c(Br)c(N(C)C(C)=O)c1Br [compound 12] | 11,0 | 
